Measured values published in patent publication US20180369264A1, “COMBINATION OF A CARDIAC STEROID AND AN AKT INHIBITOR FOR THE TREATMENT OF CARDIOVASCULAR DISEASES AND DISORDERS” (YISSUM RESEARCH DEVELOPMENT COMPANY OF THE HEBREW …, priority 2015, published 2018).

Legend:
[1] = system: zebrafish accordion mutant (acc) larvae heart; test: In-vivo heart contractility measurements in zebrafish acc mutant larvae; set-up: species or system zebrafish (Danio rerio); details: 1 nM, 90 minutes
Method: Ouabain, bufalin, digoxin, acetylcholine, carbachol, […] (pp2) and U0126 (1,4-diamino-2,3-dicyano-1,4-bis(2-aminophenylthio)butadiene) were purchased from Sigma-Aldrich Inc., Israel. The compounds were dissolved in egg water (0.3 g Instant Ocean Salt in distilled water) to a final selected concentration, as specified in the following examples. The larvae in 20 μL of E3 medium were transferred to the egg water solution containing one or two of the above specified drugs of choice, and incubated for 60-90 minutes at 28° C.
Filming process Zebrafish larvae heart imaging was performed using an Olympus CKX41 (Japan) […] microscope with ×10 or ×20 magnification, and integrated incandescent illumination. A FastCam imi-tech (Korea) high speed digital camera with 640×480 pixel gray scale image sensor was mounted on the microscope, using ImCam software (IMI Technology, Co. Ltd) for high speed video recording. The larvae were anesthetized by placing them in filming/anesthetizing medium. Each larva in 0.5 ml filming/anesthetizing medium was transferred to a 96-well tissue culture plate at room temperature and sequential images of the heart were obtained, with the larvae positioned on their side, at 80 fps during 10 seconds with a shutter speed of 0.016 seconds.
Physiological parameters of cardiovascular performance, as indicated hereinbelow, were evaluated in the zebrafish larvae. […] Sequential still frames were analyzed to capture ventricular end-systole and end-diastole images. […] The Ejection Fraction (EF) was determined by an independent estimate of ventricular volume. […] EF was then calculated according to the equation: EF=(EDV-ESV)/EDV*100. Heart rate (HR) was measured in beats per minute. Cardiac output (CO) was calculated according to the equation: CO=(EDV-ESV)*HR. A minimum of five sequential pairs of systolic and diastolic cycles were measured and analyzed in 9-12 larvae for each treatment.

Akt = Akt phosphorylation in adult zebrafish heart (Western blot); type: in vivo; details: wt adult zebrafish, 1 μM in swimming media, 5 minutes
Method: (§1) Adult zebrafish (˜12-months-old) were transferred to swimming medium containing 1 μM of CS drugs, as specified in the following examples. At various time points (5-30 min), as indicated in the following examples, the zebrafish were transferred to perfusion buffer and the hearts were immediately removed and transferred to RIPA lysis buffer (Sigma-Aldrich), and protease inhibitor cocktail (P8340, Sigma-Aldrich), at a 1:100 dilution). The tissue was homogenized in an ultrasonic homogenizer (Microson, NY, USA) and aliquots of the homogenate were stored at −70° C. until used.
Protein dilution and separation on SDS-PAGE electrophoresis, their transfer to a polyvinylidene fluoride membrane were carried out. The membranes were incubated for 1 hour at room temperature with one of the specific antibodies against Phospho-p44/42 MAPK (Erk1/2) (Thr202/Tyr204), Rabbit mAb #4370 (Cell signaling) or Phospho-Akt (Ser473) (193H12), Rabbit mAb #4058 (Cell signaling), at a 1:1000 dilution in TBS containing 0.1% Tween. The membranes were washed with TBS containing 0.1% Tween and exposed to horseradish peroxidase-conjugated secondary goat anti-rabbit IgG antibody (1:50,000). The membranes were stripped prior to their exposure to a different antibody. Detection was carried out with the aid of a Luminata™ Crescendo Western HRP Substrates, according to the manufacturer's instructions.

ERK = ERK phosphorylation in adult zebrafish heart (Western blot); type: in vivo; details: wt adult zebrafish, 1 μM in swimming media, 5 minutes
Method: as §1
Protein dilution and separation on SDS-PAGE electrophoresis, their transfer to a polyvinylidene fluoride membrane were carried out. […] The membranes were washed with TBS containing 0.1% Tween and exposed to horseradish peroxidase-conjugated secondary goat anti-rabbit IgG antibody (1:50,000). The membranes were stripped prior to their exposure to a different antibody. Detection was carried out with the aid of a Luminata™ Crescendo Western HRP Substrates, according to the manufacturer's instructions.

C[C@@H]1O[C@@H](O[C@H]2C[C@@H](O)[C@]3(CO)[C@H]4[C@H](O)C[C@]5(C)[C@@H](C6=CC(=O)OC6)CC[C@]5(O)[C@@H]4CC[C@]3(O)C2)[C@H](O)[C@H](O)[C@H]1O [ouabain, 3-(alpha-L-Rhamnopyranosyloxy)-1beta,5beta,11alpha,14,19-pentahydroxy-5beta-card-20(22)-enolide]
effect on heart contractility [1]: no effect on heart contractility | increase in Akt phosphorylation in the heart (Akt): 100±20.06% | increase in ERK phosphorylation in the heart (ERK): 130±17.95%
